Where two headings read alike, the source gives them in different places.

The subject of one assay is PCP-induced stereotypy. The experiment in a line: PCP-induced stereotypy in mice. To be noted: Mus musculus, read-out: PCP-stereotypy ED50 mg/kg po. Type of assay: in vivo, CD1 mice. The source says: Alterations in the mesocortical dopaminergic tract are thought to be responsible for the negative symptoms of schizophrenia (flattening of affect, poverty of speech, lack of volition and drive, loss of feeling, social withdrawal and decreased spontaneous movement). The best animal model of these symptoms is the behavioral changes induced by PCP (phencyclidine). The PCP-induced stereotypy and hypermotility was investigated in mice according to Ljungberg and Ungerstedt (Ljungberg, T., Ungerstedt, U. Pharmacol. Biochem. Behav., 1985, 23, 479,) and Jawitt (Jawitt, D. C. Amer. J. Psychiatry, 1991, 145, 1301). The stereotypy experiments were carried out in male CD1 mice weighing 20-25 g. The animals were starved for 16 hours before treatment without limitation of water availability. In the stereotypy studies, 30 min before treatment, mice were individually placed into small, transparent acrylic cages for habituation. Test substances were administered orally in a volume of 0.1 ml/10 g. 30 min later mice were treated with PCP with an intraperitoneal dose of 7 mg/kg. Stereotyped behavior was observed every 5th min for 60 min and scored from 0 to 4. The scores were summed individually, averaged and compared to the control group.
In both studies the ED50 values were calculated by the Litchfield-Wilcoxon's method (J. Pharmacol. Exp. Ther. 1949, 96, 49).

The target in assay [1] is T1, serotonergic receptors (Rattus norvegicus, UniProt P19327).
T1 construct: other: rat hippocampal membranes, ligand [3H]-8-OH-DPAT
T1 sequence (P19327 1-422): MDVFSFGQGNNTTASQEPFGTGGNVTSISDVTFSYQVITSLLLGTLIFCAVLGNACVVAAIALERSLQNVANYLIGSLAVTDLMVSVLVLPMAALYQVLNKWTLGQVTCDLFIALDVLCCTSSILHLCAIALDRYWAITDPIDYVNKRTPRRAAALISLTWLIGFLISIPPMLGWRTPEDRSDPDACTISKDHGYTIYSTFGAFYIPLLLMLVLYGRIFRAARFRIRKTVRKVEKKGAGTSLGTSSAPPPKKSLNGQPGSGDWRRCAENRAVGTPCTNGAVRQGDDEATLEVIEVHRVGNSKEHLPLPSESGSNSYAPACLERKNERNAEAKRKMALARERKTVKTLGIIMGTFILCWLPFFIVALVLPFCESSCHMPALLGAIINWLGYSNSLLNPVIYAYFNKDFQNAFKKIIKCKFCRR
The experiment in a line: in vitro binding profile to serotonergic receptors (Table 3). The conditions noted are these: rat hippocampal membranes, ligand [3H]-8-OH-DPAT; read-out: 5HT1A binding. The text has this: (§1) The new 2,3-benzodiazepine atypical antipsychotic agents of formula (I) of the present invention influence dopaminergic neurotransmission by a unique indirect fashion, differently from both the first and second generation antipsychotics. The in vitro binding profile of these compounds (Table 3) differs from that of the first generation antipsychotics which bind to dopaminergic receptors and second generation antipsychotics, representatives of which show affinity for dopaminergic, serotonergic, or adrenergic receptors.

The target in assay [2] is T2, serotonergic receptors (Rattus norvegicus, UniProt P14842).
T2 construct: other: rat cerebral cortical membranes, ligand [3H]ketanserin
Described as above. The conditions noted are these: rat cerebral cortical membranes, ligand [3H]ketanserin; read-out: 5HT2A binding.
Source text: as §1

Assay [3] deals with central dopaminergic receptors (Homo sapiens, UniProt P21728). The experiment in a line: in vitro binding profile to central dopaminergic receptors (Table 3). To be noted: human recombinant CHO cells, ligand [3H]SCH-23390; read-out: D1 binding.
Source text: as §1

In assay [4] the target is central dopaminergic receptors (Homo sapiens, UniProt P35462). Described as above. The conditions noted are these: human recombinant CHO cells, ligand [3H]spiperone (footnote prints D2); read-out: D3 binding.
Source text: as §1

Assay [5] addresses central dopaminergic receptors (Rattus norvegicus, UniProt P61169). Described as above. The conditions noted are these: rat striatal membranes, ligand [3H]sulpirid; read-out: D2 binding.
Source text: as §1

Assay [6] has as its target T3, central dopaminergic receptors (Homo sapiens, UniProt P21917).
T3 sequence (P21917 1-419): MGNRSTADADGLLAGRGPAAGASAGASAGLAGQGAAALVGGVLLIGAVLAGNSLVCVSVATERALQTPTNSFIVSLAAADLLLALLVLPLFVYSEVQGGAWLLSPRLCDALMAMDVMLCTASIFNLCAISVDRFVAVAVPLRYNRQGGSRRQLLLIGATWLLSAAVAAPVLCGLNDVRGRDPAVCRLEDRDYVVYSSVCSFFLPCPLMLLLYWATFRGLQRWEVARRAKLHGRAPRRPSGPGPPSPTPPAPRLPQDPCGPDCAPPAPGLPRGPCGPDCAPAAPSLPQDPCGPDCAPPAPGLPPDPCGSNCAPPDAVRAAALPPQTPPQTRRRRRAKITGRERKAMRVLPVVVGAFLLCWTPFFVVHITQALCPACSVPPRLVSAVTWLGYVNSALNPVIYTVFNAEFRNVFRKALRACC
The description is as above. The conditions noted are these: human recombinant CHO-K1 cells, ligand [3H]spiperone; read-out: D4 binding.
Source text: as §1

Assay [7] concerns conditioned avoidance responses. As to the kind of experiment: conditioned avoidance: pole jumping test in rats. The assay is classed as in vivo, Long-Evans rats. The source says: For measuring the antipsychotic potential in a non-perturbed dopamine system the pole jumping assay was used (Cook, L., Catania, A. C. Fed. Proc. 1964, 23, 818.)
This method is an active avoidance learning test. Long-Evans rats, weighing 250-450 g, were used in the experiments. Rats are placed in a box (25×25×25 cm) on a grid floor in the center of which there is a pole. After a latency period, light is turned on for a given time then the floor is electrified to deliver an unpleasant footshock. Rats may learn to avoid the shock by jumping up to grasp the pole. As soon as the rat jumps up the light and shock are turned off. Each light-on period lasted for 15 s, shock time for 30 s with an intertrial interval of 15 s. 30 such trials per day were repeated during the learning period until animals reach a minimum of 80% avoidance rate. During the experimental sessions 20 trials/day were run. Test substances were administered ip. in a volume of 0.25 ml/100 g body weight. Significances were calculated by Student's t test.

The target in assay [8] is T4, adrenergic receptors.
T4 construct: other: rat cerebral cortical membranes, ligand [3H]yohimbine
The experiment in a line: in vitro binding profile to adrenergic receptors (Table 3). To be noted: rat cerebral cortical membranes, ligand [3H]yohimbine; read-out: α2 binding.
Source text: as §1

For assay [9], the target named is T5, adrenergic receptors.
T5 construct: other: rat cerebral cortical membranes, ligand [3H]prazosin
The description is as above. To be noted: rat cerebral cortical membranes, ligand [3H]prazosin; read-out: α1 binding.
Source text: as §1

For the next assay, the system named is Adenosine transporter. As to the kind of experiment: in vitro inhibition, adenosine transporter. The assay is classed as binding. To be noted: conc: 10 μM.
[10] abbreviates: mice, po. 30 min before PCP 7 mg/kg ip.

Chain of central dopaminergic receptors (Homo sapiens, UniProt P35462) (P35462 whole entry): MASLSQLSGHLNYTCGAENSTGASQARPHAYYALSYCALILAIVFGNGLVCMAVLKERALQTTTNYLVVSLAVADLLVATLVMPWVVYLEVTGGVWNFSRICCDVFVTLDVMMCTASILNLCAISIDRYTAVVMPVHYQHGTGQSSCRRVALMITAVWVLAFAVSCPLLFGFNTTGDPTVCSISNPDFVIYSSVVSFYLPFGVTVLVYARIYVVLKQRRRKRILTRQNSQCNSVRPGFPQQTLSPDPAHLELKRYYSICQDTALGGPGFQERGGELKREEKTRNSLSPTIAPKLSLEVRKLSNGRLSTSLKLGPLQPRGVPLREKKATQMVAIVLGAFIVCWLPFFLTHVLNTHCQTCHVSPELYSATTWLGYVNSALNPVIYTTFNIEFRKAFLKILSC
T2 sequence (P14842 whole entry): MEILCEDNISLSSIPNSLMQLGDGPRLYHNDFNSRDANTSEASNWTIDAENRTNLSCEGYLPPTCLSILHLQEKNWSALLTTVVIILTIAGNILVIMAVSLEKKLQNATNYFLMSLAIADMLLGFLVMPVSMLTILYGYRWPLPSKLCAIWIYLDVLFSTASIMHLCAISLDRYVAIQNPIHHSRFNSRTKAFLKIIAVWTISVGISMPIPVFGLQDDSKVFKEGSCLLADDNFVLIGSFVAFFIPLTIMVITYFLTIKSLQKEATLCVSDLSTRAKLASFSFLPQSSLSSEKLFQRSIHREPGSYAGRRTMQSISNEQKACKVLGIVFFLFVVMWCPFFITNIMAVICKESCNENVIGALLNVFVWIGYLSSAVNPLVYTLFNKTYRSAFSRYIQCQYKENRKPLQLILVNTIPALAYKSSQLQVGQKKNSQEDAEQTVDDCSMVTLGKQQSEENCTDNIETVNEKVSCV
Chain of central dopaminergic receptors (Rattus norvegicus, UniProt P61169) (P61169 whole entry): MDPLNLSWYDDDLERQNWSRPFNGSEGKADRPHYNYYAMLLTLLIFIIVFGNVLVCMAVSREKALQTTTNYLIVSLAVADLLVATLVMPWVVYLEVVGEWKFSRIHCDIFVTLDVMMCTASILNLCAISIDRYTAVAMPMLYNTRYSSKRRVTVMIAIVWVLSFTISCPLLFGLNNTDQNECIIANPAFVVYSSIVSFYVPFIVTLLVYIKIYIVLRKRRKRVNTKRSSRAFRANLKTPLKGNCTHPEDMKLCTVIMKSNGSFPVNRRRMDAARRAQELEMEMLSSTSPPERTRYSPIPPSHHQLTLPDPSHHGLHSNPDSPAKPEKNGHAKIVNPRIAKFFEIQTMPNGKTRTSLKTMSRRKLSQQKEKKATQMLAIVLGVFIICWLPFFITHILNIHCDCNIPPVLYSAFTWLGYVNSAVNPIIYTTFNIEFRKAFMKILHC
Chain of central dopaminergic receptors (Homo sapiens, UniProt P21728) (P21728 whole entry): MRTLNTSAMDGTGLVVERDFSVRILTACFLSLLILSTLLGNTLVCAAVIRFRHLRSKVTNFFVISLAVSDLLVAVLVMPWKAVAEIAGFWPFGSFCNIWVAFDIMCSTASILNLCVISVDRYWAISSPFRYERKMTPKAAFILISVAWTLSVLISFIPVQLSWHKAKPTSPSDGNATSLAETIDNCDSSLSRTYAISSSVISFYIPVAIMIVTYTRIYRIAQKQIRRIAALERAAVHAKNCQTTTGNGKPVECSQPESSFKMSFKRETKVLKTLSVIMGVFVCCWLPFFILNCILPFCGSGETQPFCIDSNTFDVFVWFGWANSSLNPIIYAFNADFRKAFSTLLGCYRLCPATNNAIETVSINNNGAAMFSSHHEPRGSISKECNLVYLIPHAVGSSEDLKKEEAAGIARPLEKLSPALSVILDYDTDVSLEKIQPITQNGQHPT

Turning to `COc1cc2c(cc1OC)C(c1ccc(N)c(C)c1)=NN(c1nncs1)[C@H](C)C2` [Example 110], the ED50 with PCP-induced stereotypy (setting [10]) was found to be 2.38 mg/kg. Also, the Ki (on serotonergic receptors [1]; at serotonergic receptors [2]; in assay [3]; in assay [4]; in assay [5]; in assay [6]) was over 10 µM throughout. The Ki on adrenergic receptors [8] and at adrenergic receptors [9] was over 10 µM throughout. The “MED (mg/kg ip), minimal effective dose (stat. sign.)” value (“MED (mg/kg ip)” for short) in [7] was 2 mg/kg. Moreover, in the assay with Adenosine transporter, the “Inhibition in %, Adenosine transporter” value was found to be 94%.

Consider `CNC(=O)N1N=C(c2ccc(N)c(C)c2)c2cc(OC)c(OC)cc2C[C@H]1C` [Example 123], for which the ED50 in the assay on PCP-induced stereotypy stood at 1.07 mg/kg. Besides, the Ki (on serotonergic receptors [1]; at serotonergic receptors [2]; in assay [3]; in assay [4]; in [5]; in [6]) was over 10 µM each time. Moreover, the Ki at adrenergic receptors [8] and at adrenergic receptors [9] was over 10 µM in each case. Besides, the “MED (mg/kg ip)” value in assay [7] is given as 2 mg/kg. Besides, the “Inhibition in %, Adenosine transporter” value in the assay on Adenosine transporter stood at 90%.

On to `COc1cc2c(cc1OC)C(c1ccc(N)c(C)c1)=NN(c1ncon1)[C@H](C)C2` [Example 104], for which the ED50 in the assay with PCP-induced stereotypy (setting [10]) stood at 1.12 mg/kg. Also, the Ki (on serotonergic receptors [1]; on serotonergic receptors [2]; in assay [3]; in assay [4]; in [5]; in assay [6]) was over 10 µM throughout. Moreover, the Ki at adrenergic receptors [8] and on adrenergic receptors [9] was over 10 µM in each case. The “MED (mg/kg ip)” value in assay [7] was 15 mg/kg. Also, in the assay on Adenosine transporter, the “Inhibition in %, Adenosine transporter” value is recorded as 96%.

Regarding `CNC(=O)N1N=C(c2ccc(N)cc2)c2cc(OC)c(OC)cc2C[C@H]1C` [Example 121], in the assay with PCP-induced stereotypy, the ED50 is 1.56 mg/kg. In addition, the Ki (on serotonergic receptors [1]; on serotonergic receptors [2]; in [3]; in [4]; in assay [5]; in assay [6]) was over 10 µM throughout. The Ki on adrenergic receptors [8] and on adrenergic receptors [9] was over 10 µM in each case. For the same compound, in assay [7], the “MED (mg/kg ip)” value was 5 mg/kg. Besides, in the assay with Adenosine transporter, the “Inhibition in %, Adenosine transporter” value came out at 87%.

(Values after patent publication US20080269202A1, “Novel 2,3-benzodiazepine derivatives and their use as antipsychotic agents” (Teva Pharmaceutical Industries Ltd., priority 2007, published 2008).)
